Assays:
Assay in all cases: relative viability (nuclei count vs DMSO), 5 days (fraction); higher = more cells survive
Carfilzomib + Crizotinib = compound: CC(C)C[C@H](NC(=O)[C@H](CCc1ccccc1)NC(=O)CN1CCOCC1)C(=O)N[C@@H](Cc1ccccc1)C(=O)N[C@@H](CC(C)C)C(=O)[C@@]1(C)CO1 [Carfilzomib] + C[C@@H](Oc1cc(-c2cnn(C3CCNCC3)c2)cnc1N)c1c(Cl)ccc(F)c1Cl [Crizotinib] (partner 1 µM)
Summary of the method: (§1)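 Each reported value is a median over duplicate plates. It expresses relative viability: treated-well nuclei count divided by vehicle-well nuclei count. Lung cancer cell lines in 1536-well plates were dosed by pin tool a day after seeding, alone with one drug or with a fixed anchor-drug dose plus five library-drug doses (not always all listed) in √10 steps, and nuclei were counted after 5 days.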

Crizotinib + Vorinostat = compound: C[C@@H](Oc1cc(-c2cnn(C3CCNCC3)c2)cnc1N)c1c(Cl)ccc(F)c1Cl [Crizotinib] + O=C(CCCCCCC(=O)Nc1ccccc1)NO [Vorinostat] (partner 1 µM)
Summary of the method: as §1

Olaparib + Navitoclax = compound: O=C(c1cc(Cc2n[nH]c(=O)c3ccccc23)ccc1F)N1CCN(C(=O)C2CC2)CC1 [Olaparib] + CC1(C)CCC(c2ccc(Cl)cc2)=C(CN2CCN(c3ccc(C(=O)NS(=O)(=O)c4ccc(N[C@H](CCN5CCOCC5)CSc5ccccc5)c(S(=O)(=O)C(F)(F)F)c4)cc3)CC2)C1 [Navitoclax] (partner 0.5 µM)
Summary of the method: as §1

Olaparib + Alpelisib = compound: O=C(c1cc(Cc2n[nH]c(=O)c3ccccc23)ccc1F)N1CCN(C(=O)C2CC2)CC1 [Olaparib] + Cc1nc(NC(=O)N2CCC[C@H]2C(N)=O)sc1-c1ccnc(C(C)(C)C(F)(F)F)c1 [Alpelisib] (partner 2 µM)
Summary of the method: as §1

Cell Line	relative viability (Carfilzomib + Crizotinib; first compound 0.001 µM)	relative viability (Carfilzomib + Crizotinib; first compound 0.003162 µM)	relative viability (Carfilzomib + Crizotinib; first compound 0.01 µM)	relative viability (Carfilzomib + Crizotinib; first compound 0.03162 µM)	relative viability (Carfilzomib + Crizotinib; first compound 0.1 µM)	relative viability (Crizotinib + Vorinostat; first compound 0.01 µM)	relative viability (Crizotinib + Vorinostat; first compound 0.03162 µM)	relative viability (Crizotinib + Vorinostat; first compound 0.1 µM)	relative viability (Crizotinib + Vorinostat; first compound 0.3162 µM)	relative viability (Crizotinib + Vorinostat; first compound 1 µM)	relative viability (Olaparib + Navitoclax; first compound 0.08 µM)	relative viability (Olaparib + Navitoclax; first compound 0.253 µM)	relative viability (Olaparib + Navitoclax; first compound 2.53 µM)	relative viability (Olaparib + Navitoclax; first compound 8 µM)	relative viability (Olaparib + Alpelisib; first compound 0.08 µM)	relative viability (Olaparib + Alpelisib; first compound 0.253 µM)	relative viability (Olaparib + Alpelisib; first compound 2.53 µM)	relative viability (Olaparib + Alpelisib; first compound 8 µM)
COR-L23	0.71	0.828	0.731	0.0647	0.0659	0.43	0.418	0.484	0.4	0.471	1.12	0.877	0.713	0.44	0.811	0.586	0.532	0.357
COR-L 105	0.84	0.743	0.608	0.262	0.17	0.824	0.96	0.696	0.858	0.893	0.781	0.822	0.574	0.48	1.17	1.02	0.87	0.639
EKVX	0.936	0.819	0.941	0.887	0.348	0.455	0.662	0.708	0.712	0.637	1.1	0.876	0.97	0.944	1.11	0.872	0.844	0.903
EMC-BAC-2	0.779	0.896	0.928	0.661	0.229	0.524	0.418	0.494		0.365	1.37	1.1	0.999	1.01	0.737	0.751	0.636	0.621
EPLC-272H	0.441	1.07	0.811	0.11	0.0759	0.41	0.398	0.361	0.403	0.581	1.28	1.1	1.16	0.995	1.03	0.871	1.09	0.789
H3255	0.962	1.04	1.07	0.761	0.186	0.782	0.841	0.765	0.784	0.999	0.53	0.426	0.655	0.437	0.751	0.752	0.652	0.647
HARA	1.05	1.06	1.12	0.0563	0.0555	0.494	0.491	0.532	0.54	0.523	1.14	1.08	1.04	0.99	0.935	0.728	0.959	0.76
HCC-15	0.765	0.85	0.844	0.545	0.185	0.802	0.875	0.926	0.847	0.875	0.751	0.657	0.719	0.643	0.988	0.815	0.905	0.724
HCC-44	0.811	0.824	0.866	0.614	0.149	1.03	1.13	1.18	1.01	1.14	0.913	0.941	0.934	0.933	0.89	0.721	0.914	0.839
HCC-78	0.323	0.383	0.351	0.345	0.144	0.418	0.388	0.402	0.336	0.437	0.977	0.738	0.819	0.572	0.424	0.328	0.445	0.365
HCC-366	0.396	0.518	0.674	0.299	0.016	0.336	0.423	0.31		0.403	1.08	0.985	0.827	0.492	0.392	0.31	0.3	0.15
HCC-827	1.02	0.953	0.985	0.858	0.271	0.873	0.602	0.917	0.884		0.979	0.933	0.978	0.855	1.02	0.934	0.828	0.876
HOP-62	0.952	0.966	0.845	0.099	0.0686	0.638	0.672	0.613	0.3	0.685	1.22	0.929	1.06	0.823	1.25	0.774	0.754	0.782
IA-LM	0.956	0.796	0.502	0.0235	0.0632	0.977	0.958	1.07	0.949	0.907	0.825	0.784	0.707	0.502	0.929	0.738	0.76	0.509
LC-2-ad	0.508	0.485	0.428	0.371	0.279	0.703	0.656	0.699		0.704	0.529	0.431	0.365	0.316	0.893	0.746	0.863	0.695
LCLC-97TM1	0.354	0.339	0.352	0.0915	0.129	0.672	0.697	0.686	0.223	0.658	0.528	0.259	0.346	0.405	0.256	0.219	0.271	0.19
LK-2		0.237	0.16	0.262	0.209	0.346	0.29	0.314	0.252	0.277	0.887	0.696	0.876	0.951	1.07	1.03	1.25	0.945
LOU-NH91	0.818	0.798	0.77	0.434	0.277	0.893	0.927	0.989		0.836	0.757	0.642	0.725	0.618	0.783	0.758	0.745	0.647

Cell Line	relative viability (Carfilzomib + Crizotinib; first compound 0.001 µM)	relative viability (Carfilzomib + Crizotinib; first compound 0.003162 µM)	relative viability (Carfilzomib + Crizotinib; first compound 0.01 µM)	relative viability (Carfilzomib + Crizotinib; first compound 0.03162 µM)	relative viability (Carfilzomib + Crizotinib; first compound 0.1 µM)	relative viability (Crizotinib + Vorinostat; first compound 0.01 µM)	relative viability (Crizotinib + Vorinostat; first compound 0.03162 µM)	relative viability (Crizotinib + Vorinostat; first compound 0.1 µM)	relative viability (Crizotinib + Vorinostat; first compound 0.3162 µM)	relative viability (Crizotinib + Vorinostat; first compound 1 µM)	relative viability (Olaparib + Navitoclax; first compound 0.08 µM)	relative viability (Olaparib + Navitoclax; first compound 0.253 µM)	relative viability (Olaparib + Navitoclax; first compound 2.53 µM)	relative viability (Olaparib + Navitoclax; first compound 8 µM)	relative viability (Olaparib + Alpelisib; first compound 0.08 µM)	relative viability (Olaparib + Alpelisib; first compound 0.253 µM)	relative viability (Olaparib + Alpelisib; first compound 2.53 µM)	relative viability (Olaparib + Alpelisib; first compound 8 µM)
LU99A	0.585	0.667	0.584	0.291	0.16	0.448	0.515	0.512	0.459	0.507	0.775	0.635	0.547	0.289	0.608	0.487	0.471	0.422
LXF-289	0.797	0.857	0.855	0.148	0.0565	0.75	0.799	0.757	0.599	0.786	1.03	0.9	1.02	0.96	1.16	1.02	1.07	1.03
NCI-H23	0.637	0.612	0.587	0.153	0.134	0.465	0.648	0.596		0.737	0.953	0.684	0.603	0.387	0.658	0.546	0.539	0.384
NCI-H322M	0.935	0.864	0.938	0.795	0.252		0.884	1	0.823	0.972	1.34	1.07	1.23	1.01	0.893	0.789	0.911	0.709
NCI-H441	0.7	1.15	0.362	0.1	0.127	0.799	0.774	0.63	0.768	0.965		0.406	0.706	0.582		0.541	0.568	0.487
NCI-H460	0.921	1.01	0.852	0.0558	0.0115	0.709	0.69	0.688	0.852	0.722	1.18	0.94	0.815	0.424	0.62	0.38	0.238	0.173
NCI-H520	0.759	0.883	0.665	0.103	0.106	0.568	0.68	0.732	0.774	0.722	1.32	0.932	1.08	0.601	1.05	0.843	0.814	0.529
NCI-H596	0.916	1.28	1	0.77	0.334	0.638	0.681	0.742	0.62	0.748	0.899	0.902	0.878	0.519	0.532	0.452	0.551	0.41
NCI-H647	0.847	1.04	0.713	0.0319	0.0277		0.71	0.575	0.764	0.643	1.44	1.1	1.06	0.745	1.41	1.05	1.29	0.954
NCI-H727	0.84	0.682	0.871	0.223	0.141	1.16	1.1	1.3	1.16	1.37	0.42	0.344	0.321	0.204	0.607	0.527	0.597	0.332
NCI-H838	0.876	0.972	0.923	0.577	0.122	0.715		0.728	0.687	0.701	1.12	1.06	1.03	1.03	1.09	0.933	0.978	0.944
NCI-H1355	1.05	1.05	1.03	0.695	0.139	0.638	0.629	0.625	0.564	0.613	0.959	0.887	0.949	0.881	0.804	0.716	0.825	0.798
NCI-H1437	0.915	1.04	0.898	0.835	0.184	0.832	0.832	0.857	0.867	0.849	1.12	1.01	0.952	0.761	0.987	0.987	0.929	0.764
NCI-H1651	0.874	0.914	0.782	0.383	0.122	0.572	0.424	0.582	0.398	0.61	0.97	0.814	0.654	0.257	0.927	0.869	0.714	0.356
NCI-H1666	1.07	1.14	1.08	0.409	0.211	1.14	0.999	1.07	0.978	0.955	1.17	0.828	0.796	0.853	1.01	0.945	0.844	0.676
NCI-H1734	0.658	0.836	0.616	0.435	0.111	0.866	0.787	0.784		0.807	0.854	0.709	0.765	0.531	0.669	0.612	0.623	0.519
NCI-H1755	0.817	0.904	0.894	0.498	0.189	0.668	0.779	0.743	0.757	0.764	1.02	0.912	1.01	0.876	1.05	0.867	0.898	0.841

Reference: the supplement of paper PMC10307832
